{"source": "patent US20130281512A1", "about": "“AGENTS FOR TREATING DISORDERS INVOLVING MODULATION OF RYANODINE RECEPTORS” (LES LABORATOIRES SERVIER, priority 2012, published 2013)", "key": {"DMD exon skipping": {"system": "DMD exon skipping", "settings": "skeletal muscle of mdx mice; cited from earlier work"}, "PKA-phosphorylated RyR2": {"molecular_target": "T1, PKA-phosphorylated RyR2 (Homo sapiens, UniProt Q92736)", "T1 construct": "Cardiac SR membranes were prepared as previously described; from tissue; host or cells: cardiac sarcoplasmic reticulum (heart muscle microsomes)", "assay": "Calstabin2 rebinding assay: binding of calstabin2 to PKA-phosphorylated RyR2 (cardiac SR, immunoblot)", "settings": "100 nM compound; immunoblot with calstabin2 antibody", "method": "Cardiac SR membranes were prepared as previously described (Marx et al., 2000; Kaftan et al., Circ. Res., 1996, 78:990-97). Immunoblotting of microsomes (50 μg) was performed as described, with anti-calstabin antibody (1:1,000) (Jayaraman et al., J. Biol. Chem., 1992, 267:9474-77) for 1 hr at room temperature (Reiken et al., Circulation, 107:2459-66, 2003). After incubation with HRP-labeled anti-rabbit IgG (1:5,000 dilution; Transduction Laboratories, Lexington, Ky.), the blots were developed using ECL (Amersham Pharmacia, Piscataway, N.J.) and detected on x-ray film, or exposed to secondary antibodies labeled with infrared Dye and visualized on equipment from Li-Cor Biosciences (model Odyssey). Unless otherwise stated, compounds were tested at a concentration of 100 nM. A representative calstabin2 binding assay is presented below.\nA. PKA phosphorylation of cardiac sarcoplasmic reticulum (CSR)\nB. Reaction mixture was set up in 1.5 ml microfuge tube. 200 μg of cardiac SR were added to a reaction mix of kinase buffer, PKA and ATP to a final volume of 100 (Reaction mix below). ATP was added last to initiate the reaction.\n20 μl Sample (cardiac SR, 2 or 10 μg/μl) 10 μl=10× Kinase buffer (80 mM MgCl2, 100 mM EGTA, 500 mM Tris/PIPES), pH=7.0\n20 μl PKA (2units/ul) (Sigma # P2645)\n40 μl=distilled H2O • 1. The tubes were incubated at 30° C. for 30 minutes. • 2. The reaction mix was then transferred to 0.5 ml thick walled glass tubes. • 3. The glass tubes containing the reaction mix were centrifuged for 10 min at 50,000×g in Sorvall Centrifuge RCM120EX using S120AT3 rotor. Centrifugation at 50,000×g for 10 min is sufficient to isolate the microsomes. • 4. The resulting pellet was washed 4 times with binding buffer (10 mM Imidazol 300 mM Sucrose, pH=7.4). Each time 100111 of 1× binding buffer was added to the tube to wash the pellet. The pellet was resuspended by flushing up and down using the pipette tip. After the last spin 501.11 of binding buffer was added and the pellets from all tubes were pooled. The reaction was stored at −20° C. • 5. Phosphorylation was confirmed by separating approximately 10 μg of CSR by 6% Polyacylamide gel electrophoresis (PAGE) and analyzing the immunoblots for both total RyR (5029 Ab, 1:3000 dilution or Monoclonal Ab from Affinity Bioreagents, Cat # MA3-916, 1:2000 dilution) and PKA phosphorylated RyR2 (P2809 Ab, 1:10000 dilution). • 6. Aliquots can be stored at −80 C.\nC. Calstabin Rebinding Assay\n• 1. PKA-phosphorylated CSR (approximately 20 μg) was incubated with 250 nM Calstabin 2 in 100111 binding buffer (as described above) with or without compounds. • 2. […] Calstabin2 binding was detected with anti-FKBP (Jayaraman et al., J. Biol. Chem. 1992; 267:9474-77, 1:2000) primary antibody and appropriate secondary antibody."}, "RyR2": {"system": "RyR2", "settings": "WT and RyR2-S2808D+/+ mice; cited from earlier work"}, "RyR1 [1]": {"molecular_target": "T2, RyR1 (Mus musculus, UniProt E9PZQ0)", "T2 construct": "RyR1 from aged (24 months) mice is oxidized, cysteine-nitrosylated, and depleted of calstabin1; host or cells: mice (in vivo)", "T2 sequence (E9PZQ0 whole entry)": "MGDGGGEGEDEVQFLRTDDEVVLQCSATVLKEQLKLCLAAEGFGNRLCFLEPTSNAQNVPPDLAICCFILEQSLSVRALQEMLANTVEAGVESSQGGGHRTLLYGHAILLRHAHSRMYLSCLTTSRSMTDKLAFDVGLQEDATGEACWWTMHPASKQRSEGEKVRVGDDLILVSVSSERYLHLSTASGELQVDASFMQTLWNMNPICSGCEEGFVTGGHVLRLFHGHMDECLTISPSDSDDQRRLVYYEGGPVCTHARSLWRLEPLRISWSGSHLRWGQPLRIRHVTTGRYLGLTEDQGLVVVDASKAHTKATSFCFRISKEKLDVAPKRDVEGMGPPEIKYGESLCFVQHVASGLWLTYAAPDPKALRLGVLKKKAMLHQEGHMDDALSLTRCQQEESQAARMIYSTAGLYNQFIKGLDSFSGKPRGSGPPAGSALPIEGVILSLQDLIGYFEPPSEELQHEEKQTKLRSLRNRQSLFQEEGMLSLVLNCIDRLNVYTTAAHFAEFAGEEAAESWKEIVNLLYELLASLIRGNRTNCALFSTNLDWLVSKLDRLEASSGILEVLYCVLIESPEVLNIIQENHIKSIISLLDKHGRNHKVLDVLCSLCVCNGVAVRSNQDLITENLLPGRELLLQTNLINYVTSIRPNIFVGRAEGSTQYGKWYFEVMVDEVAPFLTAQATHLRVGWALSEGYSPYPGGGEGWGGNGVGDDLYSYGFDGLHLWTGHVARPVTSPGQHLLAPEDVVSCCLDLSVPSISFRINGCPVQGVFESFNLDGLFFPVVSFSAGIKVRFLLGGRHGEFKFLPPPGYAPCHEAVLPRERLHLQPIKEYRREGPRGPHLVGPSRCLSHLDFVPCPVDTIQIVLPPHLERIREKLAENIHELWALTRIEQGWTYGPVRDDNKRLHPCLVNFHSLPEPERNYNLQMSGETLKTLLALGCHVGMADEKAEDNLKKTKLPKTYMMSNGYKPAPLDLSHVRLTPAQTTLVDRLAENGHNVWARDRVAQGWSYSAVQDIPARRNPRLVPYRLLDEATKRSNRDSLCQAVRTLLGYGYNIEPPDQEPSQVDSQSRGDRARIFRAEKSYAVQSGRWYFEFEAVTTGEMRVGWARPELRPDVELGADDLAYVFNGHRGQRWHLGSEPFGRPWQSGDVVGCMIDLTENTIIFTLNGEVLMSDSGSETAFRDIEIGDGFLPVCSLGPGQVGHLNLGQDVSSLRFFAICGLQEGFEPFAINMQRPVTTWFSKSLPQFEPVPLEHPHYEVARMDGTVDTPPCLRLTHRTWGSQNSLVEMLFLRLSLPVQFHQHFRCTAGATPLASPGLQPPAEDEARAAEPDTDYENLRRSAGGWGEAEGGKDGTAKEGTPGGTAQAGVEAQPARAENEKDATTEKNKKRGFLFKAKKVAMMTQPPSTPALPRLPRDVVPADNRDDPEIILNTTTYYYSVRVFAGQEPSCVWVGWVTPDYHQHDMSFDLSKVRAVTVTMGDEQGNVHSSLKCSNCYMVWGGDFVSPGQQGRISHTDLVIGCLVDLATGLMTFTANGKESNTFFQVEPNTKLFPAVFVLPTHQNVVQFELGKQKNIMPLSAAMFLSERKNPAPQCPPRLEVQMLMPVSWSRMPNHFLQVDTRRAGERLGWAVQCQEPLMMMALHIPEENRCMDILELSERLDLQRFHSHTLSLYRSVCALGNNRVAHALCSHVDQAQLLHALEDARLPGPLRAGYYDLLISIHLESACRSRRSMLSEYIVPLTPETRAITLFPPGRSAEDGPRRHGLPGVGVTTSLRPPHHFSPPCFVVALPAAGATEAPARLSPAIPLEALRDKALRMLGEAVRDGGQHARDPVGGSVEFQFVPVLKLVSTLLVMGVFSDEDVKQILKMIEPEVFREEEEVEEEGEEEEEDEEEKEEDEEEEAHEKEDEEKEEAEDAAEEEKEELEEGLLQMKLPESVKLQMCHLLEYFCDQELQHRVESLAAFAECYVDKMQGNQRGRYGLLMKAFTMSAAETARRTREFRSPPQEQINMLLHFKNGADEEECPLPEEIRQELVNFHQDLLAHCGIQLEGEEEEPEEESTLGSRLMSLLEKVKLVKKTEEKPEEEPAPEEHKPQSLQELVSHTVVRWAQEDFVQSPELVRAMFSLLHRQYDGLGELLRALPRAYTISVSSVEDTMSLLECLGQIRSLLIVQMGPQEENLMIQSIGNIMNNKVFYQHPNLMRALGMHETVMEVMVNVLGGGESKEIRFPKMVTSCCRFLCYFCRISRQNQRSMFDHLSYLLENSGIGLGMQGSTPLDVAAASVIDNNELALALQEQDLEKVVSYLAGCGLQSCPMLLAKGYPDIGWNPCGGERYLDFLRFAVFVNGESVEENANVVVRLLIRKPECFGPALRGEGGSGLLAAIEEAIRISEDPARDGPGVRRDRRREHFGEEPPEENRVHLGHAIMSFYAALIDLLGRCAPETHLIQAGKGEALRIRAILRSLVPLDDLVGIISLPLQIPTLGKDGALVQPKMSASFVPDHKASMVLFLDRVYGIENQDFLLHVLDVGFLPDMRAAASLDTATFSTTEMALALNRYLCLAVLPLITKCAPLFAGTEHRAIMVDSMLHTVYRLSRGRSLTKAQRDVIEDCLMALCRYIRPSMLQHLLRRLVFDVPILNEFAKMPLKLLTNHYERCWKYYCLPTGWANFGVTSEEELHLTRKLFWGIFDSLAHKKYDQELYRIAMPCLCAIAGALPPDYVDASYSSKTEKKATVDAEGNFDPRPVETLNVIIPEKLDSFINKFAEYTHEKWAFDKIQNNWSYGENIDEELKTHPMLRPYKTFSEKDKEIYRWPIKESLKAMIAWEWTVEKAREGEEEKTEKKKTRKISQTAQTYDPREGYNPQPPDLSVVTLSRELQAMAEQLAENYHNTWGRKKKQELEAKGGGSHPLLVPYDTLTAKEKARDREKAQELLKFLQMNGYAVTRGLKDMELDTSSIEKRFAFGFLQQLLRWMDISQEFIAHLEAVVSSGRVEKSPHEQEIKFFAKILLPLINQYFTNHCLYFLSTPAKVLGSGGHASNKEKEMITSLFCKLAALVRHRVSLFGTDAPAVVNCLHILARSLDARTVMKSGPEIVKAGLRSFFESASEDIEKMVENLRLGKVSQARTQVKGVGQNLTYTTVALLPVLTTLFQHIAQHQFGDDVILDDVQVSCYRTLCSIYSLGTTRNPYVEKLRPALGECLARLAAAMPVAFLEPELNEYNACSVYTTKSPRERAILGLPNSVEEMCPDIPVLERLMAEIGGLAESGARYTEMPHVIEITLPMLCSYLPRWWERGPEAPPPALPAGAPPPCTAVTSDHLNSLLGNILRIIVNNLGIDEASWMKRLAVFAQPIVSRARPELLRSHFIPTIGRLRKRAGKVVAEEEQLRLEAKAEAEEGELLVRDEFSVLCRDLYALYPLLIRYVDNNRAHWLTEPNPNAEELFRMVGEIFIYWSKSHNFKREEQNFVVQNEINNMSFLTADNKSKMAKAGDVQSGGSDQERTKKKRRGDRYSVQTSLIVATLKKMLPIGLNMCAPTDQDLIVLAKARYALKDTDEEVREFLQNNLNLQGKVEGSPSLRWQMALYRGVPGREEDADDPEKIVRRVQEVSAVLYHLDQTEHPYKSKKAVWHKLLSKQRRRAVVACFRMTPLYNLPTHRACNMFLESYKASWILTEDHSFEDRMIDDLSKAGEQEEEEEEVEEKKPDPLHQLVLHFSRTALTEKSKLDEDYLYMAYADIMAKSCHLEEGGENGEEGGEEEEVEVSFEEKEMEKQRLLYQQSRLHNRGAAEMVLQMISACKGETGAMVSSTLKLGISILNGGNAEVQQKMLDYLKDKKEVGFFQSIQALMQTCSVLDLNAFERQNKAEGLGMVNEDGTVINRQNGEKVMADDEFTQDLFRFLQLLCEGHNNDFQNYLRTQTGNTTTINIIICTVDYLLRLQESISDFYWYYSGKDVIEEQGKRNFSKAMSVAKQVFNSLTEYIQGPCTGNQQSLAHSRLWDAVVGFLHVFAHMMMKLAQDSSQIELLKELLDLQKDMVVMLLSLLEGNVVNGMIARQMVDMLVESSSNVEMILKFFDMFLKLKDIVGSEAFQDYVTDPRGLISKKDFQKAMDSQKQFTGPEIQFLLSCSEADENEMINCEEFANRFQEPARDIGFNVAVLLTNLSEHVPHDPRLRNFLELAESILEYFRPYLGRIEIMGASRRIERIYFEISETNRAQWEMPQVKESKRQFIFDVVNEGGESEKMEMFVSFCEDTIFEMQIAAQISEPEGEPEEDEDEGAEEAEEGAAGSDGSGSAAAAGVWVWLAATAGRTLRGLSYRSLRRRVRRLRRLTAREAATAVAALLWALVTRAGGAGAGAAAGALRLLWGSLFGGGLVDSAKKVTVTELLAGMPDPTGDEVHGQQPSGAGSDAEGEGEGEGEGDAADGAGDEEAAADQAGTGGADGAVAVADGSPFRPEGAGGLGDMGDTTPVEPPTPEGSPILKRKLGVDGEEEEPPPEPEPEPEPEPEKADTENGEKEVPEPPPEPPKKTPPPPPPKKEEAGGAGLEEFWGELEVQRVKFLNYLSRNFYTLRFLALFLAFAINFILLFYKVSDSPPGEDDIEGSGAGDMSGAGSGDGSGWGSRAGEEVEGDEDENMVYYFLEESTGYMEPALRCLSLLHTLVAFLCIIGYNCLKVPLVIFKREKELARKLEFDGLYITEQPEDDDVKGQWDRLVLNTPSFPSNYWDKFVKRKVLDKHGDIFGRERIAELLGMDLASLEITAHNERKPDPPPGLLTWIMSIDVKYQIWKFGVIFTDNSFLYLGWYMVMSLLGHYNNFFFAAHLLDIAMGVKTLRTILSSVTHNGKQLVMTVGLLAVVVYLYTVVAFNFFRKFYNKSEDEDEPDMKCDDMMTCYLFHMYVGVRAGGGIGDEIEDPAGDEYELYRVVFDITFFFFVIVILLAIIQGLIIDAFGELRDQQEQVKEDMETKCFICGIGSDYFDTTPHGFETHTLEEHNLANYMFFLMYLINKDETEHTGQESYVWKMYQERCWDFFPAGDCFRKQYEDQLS", "T2 sequence (P26883 2-108 partner limits assumed)": "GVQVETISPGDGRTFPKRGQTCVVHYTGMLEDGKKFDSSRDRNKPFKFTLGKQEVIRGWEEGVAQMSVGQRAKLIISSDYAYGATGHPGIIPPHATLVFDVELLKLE", "settings": "extreme exercise, mice; cited from earlier work"}, "RyR1 [2]": {"system": "RyR1", "settings": "mdx mouse model; cited from earlier work"}, "RyR1 [3]": {"molecular_target": "T2, RyR1", "settings": "aged mice; cited from earlier work"}, "RyR": {"system": "RyR", "settings": "cited from earlier work"}, "PKA-phosphorylated RyR1": {"molecular_target": "PKA-phosphorylated RyR1 (Homo sapiens, UniProt P21817)", "assay": "biochemical", "method": "Immunoblotting of microsomes (50 μg) was performed as described, with anti-calstabin1 antibody (Zymed) (1:1,000). The blots were developed and quantified as described in Example 2."}}, "note": "pEC50: −log10 of the molar value."}
{"smiles": "O=C1CN(/N=C/c2ccc(-c3ccc([N+](=O)[O-])cc3)o2)C(O)=N1", "note": "[Dantrolene]", "values": [{"measurement": "antisense oligomer-guided exon skipping", "setting": "DMD exon skipping", "result": "potentiate"}]}
{"smiles": "COC(=O)c1ccc(CN2CCSc3ccc(OC)cc3C2)cc1", "note": "[Compound 3, Methyl 4-((7-methoxy-2,3-dihydrobenzo[f][1,4]thiazepin-4(5H)-yl)methyl)benzoate]", "values": [{"measurement": "binding of calstabin2 to PKA-phosphorylated RyR2", "setting": "PKA-phosphorylated RyR2", "result": "prevent dissociation of calstabin2 from PKA-phosphorylated RyR2, and/or enhance the (re)binding of calstabin2 to PKA-phosphorylated RyR2"}]}
{"smiles": "COc1ccc2c(c1)CN(C)CCS2", "note": "[Compound 5107]", "values": [{"measurement": "HF progression", "setting": "RyR2", "result": "reduced"}, {"measurement": "RyR2-mediated diastolic SR Ca2+ leak", "setting": "RyR2", "result": "inhibited"}, {"measurement": "Ca2+ dependent neutral protease calpain activity and plasma creatinine kinase levels", "setting": "RyR1 [1]", "result": "reduced"}, {"measurement": "depletion of calstabin1 from the RyR1 complex", "setting": "RyR1 [1]", "result": "prevented"}, {"measurement": "indices of muscle function", "setting": "RyR1 [2]", "result": "improves"}, {"measurement": "binding of calstabin1 to RyR1", "setting": "RyR1 [3]", "result": "stabilized"}, {"measurement": "intracellular calcium leak", "setting": "RyR1 [3]", "result": "reduced"}, {"measurement": "reactive oxygen species (ROS)", "setting": "RyR1 [3]", "result": "decreased"}, {"measurement": "tetanic Ca2+ release, muscle-specific force, and exercise capacity", "setting": "RyR1 [3]", "result": "enhanced"}, {"measurement": "SR Ca2+ leak", "setting": "RyR; after myocardial ischemia-reperfusion", "result": "inhibited"}, {"measurement": "ventricular arrhythmias, infarct size, and left ventricular remodeling", "setting": "RyR; at 15 days after reperfusion", "result": "reduced"}]}
{"smiles": "COc1ccc2c(c1)CN(Cc1cccc(C(=O)O)c1)CCS2", "note": "[Compound 4, 3-((7-Methoxy-2,3-dihydrobenzo[f][1,4]thiazepin-4(5H)-yl)methyl)benzoic acid]", "values": [{"measurement": "binding of calstabin2 to PKA-phosphorylated RyR2", "setting": "PKA-phosphorylated RyR2", "result": "prevent dissociation of calstabin2 from PKA-phosphorylated RyR2, and/or enhance the (re)binding of calstabin2 to PKA-phosphorylated RyR2"}, {"measurement": "pEC50", "setting": "PKA-phosphorylated RyR1", "result": "~6.82"}, {"measurement": "binding of calstabin1 to PKA phosphorylated RyR1", "setting": "PKA-phosphorylated RyR1; indicated concentrations, immunoblot with calstabin1 antibody", "result": "prevented the dissociation of calstabin1 from PKA phosphorylated RyR1 and/or enhanced the (re)binding of calstabin1 to PKA-phosphorylated RyR1 in a dose-dependent manner"}]}
{"smiles": "COC(=O)c1cccc(CN2CCSc3ccc(OC)cc3C2)c1", "note": "[Compound 2, Methyl 3-((7-methoxy-2,3-dihydrobenzo[f][1,4]thiazepin-4(5H)-yl)methyl)benzoate]", "values": [{"measurement": "binding of calstabin2 to PKA-phosphorylated RyR2", "setting": "PKA-phosphorylated RyR2", "result": "prevent dissociation of calstabin2 from PKA-phosphorylated RyR2, and/or enhance the (re)binding of calstabin2 to PKA-phosphorylated RyR2"}]}
